The values that follow come from patent US4230846A, “1,5-Carbamates of fortimicin B and derivatives” (Abbott Laboratories, priority 1979, dated 1980).

Structures can show the parent of a compound that is named as a salt. Where two headings read alike, the source gives them in different places.

For test [1], the system named is E coli 76-2. The test can be described thus: In vitro antimicrobial activity, 2-fold agar dilution. Type of test: cell-based. Particulars: Mueller-Hinton agar, 37° C., 24 hours. How it is done:
(§1) 21, 1977. The in vitro activity of 2-deoxyfortimicin As set forth in Table I. The in vitro activity of 2-deoxyfortiicin A tetrahydrochloride, fortimicin A disulfate and fortimicin A tetrahydrochloride were determined using a 2-fold agar dilution method using 10 ml per petri plate of Mueller-Hinton agar. The agar was inoculated with one loopful (0.001 ml/loop) of a 1:10 dilution of a 24 hour broth culture of the indicated test organism and incubated at 37° C. for 24 hours.
Background: In agar dilution, organisms are placed on agar that contains the substance at set levels.

Test [2] has as its system Psuedo. aeruginosa KY 8516. The description is as above. The format is cell-based. As for the experimental part: as §1

For `COC1CC(N)C(OC2OC(C(C)N)CCC2N)C(O)C1N(C)C(=O)CN` (centres unmarked) [2-deoxyfortimicin A tetrahydrochloride], the MIC turned out to be 3.1 µg/mL in test [1] (read-out: Minimum inhibitory concentration) and 50 µg/mL in test [2] (Psuedo. aeruginosa KY 8516, Mueller-Hinton agar, 37° C., 24 hours, read-out: Minimum inhibitory concentration).
As to `COC1C(O)C(N)C(OC2OC(C(C)N)CCC2N)C(O)C1N(C)C(=O)CN` (centres unmarked) [Fortimicin A tetrahydrochloride, fortimicin A tetrahydrochloride], the Minimum inhibitory concentration stood at 3.1 µg/mL in test [1] and 100 µg/mL in test [2] (Psuedo. aeruginosa KY 8516, Mueller-Hinton agar, 37° C., 24 hours).
For the molecule `COC1C(O)C(N)C(OC2OC(C(C)N)CCC2N)C(O)C1N(C)C(=O)CN` (centres unmarked) [Fortimicin A disulfate, fortimicin A disulfate], the MIC in test [2] (24 h, read-out: Minimum inhibitory concentration, Psuedo. aeruginosa KY 8516, Mueller-Hinton agar, 37° C.) amounted to 50 µg/mL.
